Measurements: ChEMBL document CHEMBL6103580, “Synthesis and biological evaluation of natural cleistanolate, its enantiomer and analogues” (Eur J Med Chem, 2025)
Activity calls are given as the source filed them. The calls are words filed in the database; no cut-off is given here.

How the values were obtained:
[1] = tested on: Raji; experiment: Antiproliferative activity against human Raji cells assessed as inhibition of cell growth incubated for 72 hrs by MTT assay; format: functional, cell-based
[2] = tested on: MCF7; experiment: Antiproliferative activity against human MCF7 cells assessed as inhibition of cell growth incubated for 72 hrs by MTT assay; format: functional, cell-based; conditions: MCF7, 72 h
[3] = tested on: A549; experiment: Antiproliferative activity against human A549 cells assessed as inhibition of cell growth incubated for 72 hrs by MTT assay; format: functional, cell-based; conditions: A549, 72 h
[4] = tested on: K562; experiment: Antiproliferative activity against human K562 cells assessed as inhibition of cell growth incubated for 72 hrs by MTT assay; format: functional, cell-based; conditions: K562, 72 h
[5] = tested on: Jurkat; experiment: Antiproliferative activity against human Jurkat cells assessed as inhibition of cell growth incubated for 72 hrs by MTT assay; format: functional, cell-based
[6] = tested on: HL-60; experiment: Antiproliferative activity against human HL-60 cells assessed as inhibition of cell growth incubated for 72 hrs by MTT assay; format: functional, cell-based; conditions: HL-60, 72 h
[7] = tested on: HeLa; experiment: Antiproliferative activity against human HeLa cells assessed as inhibition of cell growth incubated for 72 hrs by MTT assay; format: functional, cell-based
[8] = Antiproliferative activity against human MRC5 cells assessed as inhibition of cell growth incubated for 72 hrs by MTT assay; format: toxicity, cell-based
[9] = tested on: MDA-MB-231; experiment: Antiproliferative activity against human MDA-MB-231 cells assessed as inhibition of cell growth incubated for 72 hrs by MTT assay; format: functional, cell-based; conditions: MDA-MB-231, 72 h
[10] = tested on: Candida tropicalis; experiment: Antifungal activity against Candida tropicalis CCY 29-7-62 assessed as reduction in fungal growth incubated for 48 hrs by muller hinton broth microdilution based XTT assay; format: functional
[11] = tested on: Escherichia coli; experiment: Antimicrobial activity against Escherichia coli ZPM 132 assessed as reduction in cell viability incubated for 24 hrs by muller hinton broth microdilution based XTT assay; format: functional
[12] = molecular target: Cholinesterase (Homo sapiens) (UniProt P06276); experiment: Inhibition of human BChE at 100 uM using acetylthiocholine iodide as substrate by DTNB reagent based Ellman spectrophotometric analysis relative to control
Chain of Cholinesterase (Homo sapiens) (P06276 whole entry): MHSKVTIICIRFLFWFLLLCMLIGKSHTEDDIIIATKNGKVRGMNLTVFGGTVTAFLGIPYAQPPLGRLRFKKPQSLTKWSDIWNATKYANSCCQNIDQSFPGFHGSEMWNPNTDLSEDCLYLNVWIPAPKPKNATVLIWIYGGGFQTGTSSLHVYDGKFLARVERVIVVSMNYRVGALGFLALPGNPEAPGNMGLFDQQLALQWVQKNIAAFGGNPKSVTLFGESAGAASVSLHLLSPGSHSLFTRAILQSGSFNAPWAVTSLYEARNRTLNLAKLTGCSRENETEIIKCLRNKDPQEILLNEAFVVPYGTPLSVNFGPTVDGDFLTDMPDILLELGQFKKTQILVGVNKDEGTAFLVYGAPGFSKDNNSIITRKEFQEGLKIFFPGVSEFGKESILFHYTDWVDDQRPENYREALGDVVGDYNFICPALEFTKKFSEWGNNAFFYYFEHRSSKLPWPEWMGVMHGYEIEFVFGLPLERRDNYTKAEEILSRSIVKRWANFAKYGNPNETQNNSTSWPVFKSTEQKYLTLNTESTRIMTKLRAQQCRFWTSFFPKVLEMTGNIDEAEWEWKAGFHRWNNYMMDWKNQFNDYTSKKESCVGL

[13] = tested on: Streptococcus pneumoniae; experiment: Antibacterial activity against Streptococcus pneumoniae ZPM 187 assessed as reduction in cell viability incubated for 24 hrs by muller hinton broth microdilution based XTT assay; format: functional
[14] = tested on: Vibrio cholerae; experiment: Antibacterial activity against Vibrio cholerae O139 CIRS 245 assessed as reduction in cell viability incubated for 24 hrs by muller hinton broth microdilution based XTT assay; format: functional
[15] = tested on: Escherichia coli; experiment: Antibacterial activity against Escherichia coli ZPM 132 assessed as reduction in cell viability incubated for 24 hrs by muller hinton broth microdilution based XTT assay; format: functional
[16] = Potency index, ratio of cleistanolate IC50 to test compound IC50 for antiproliferative activity against human HeLa cells assessed as inhibition of cell growth incubated for 72 hrs by MTT assay; format: functional
[17] = tested on: Raji; experiment: Potency index, ratio of cleistanolate IC50 to test compound IC50 for antiproliferative activity against human Raji cells assessed as inhibition of cell growth incubated for 72 hrs by MTT assay; format: functional

SMILES | IC50 [1] | IC50 [2] | IC50 [3] | IC50 [4] | IC50 [5] | IC50 [6] | IC50 [7] | IC50 at 72 h [8] | IC50 [9] | MFC [10] | MIC [11] | inhibition [12] | MBC [13] | MBC [14] | MBC [15] | Ratio IC50 [16] | Ratio IC50 [17]
O=C1C[C@@H](O)[C@@H]([C@@H](O)[C@@H](O)CO)O1 | 24.4 µM | 19.5 µM | 23.6 µM | 16.5 µM | 20.3 µM | 19.3 µM | 12.9 µM | > 100 µM | 19.6 µM | – | – | – | – | – | – | – | –
CO[C@@H]1CC(=O)O[C@@H]1[C@@H](O)[C@H](O)COC(=O)c1ccccc1 | 19.4 µM | 15.6 µM | 25.6 µM | 10.6 µM | 15.6 µM | 18.9 µM | 8.61 µM | > 100 µM | 31.2 µM | – | – | – | – | – | – | – | –
CO[C@@H]1CC(=O)O[C@@H]1[C@@H](OC(C)=O)[C@H](COC(=O)c1ccccc1)OC(C)=O | 22.3 µM | 5.4 µM | 25.4 µM | 12 µM | 26.3 µM | 11 µM | 2.45 µM | 94.8 µM | 21.7 µM | > 100 µg/mL | > 1000 µg/mL | 35% | > 100 µg/mL | > 100 µg/mL | > 1000 µg/mL | – | –
CO[C@@H]1CC(=O)O[C@@H]1[C@@H](O)[C@@H](O)COC(=O)c1ccccc1 | 15.4 µM | 14.4 µM | 11.4 µM | 11.4 µM | 20.2 µM | 12.1 µM | 7.65 µM | > 100 µM | 27.7 µM | – | – | – | – | – | – | – | –
O=C1C[C@H]2O[C@@H]3CO[C@@H]3[C@H]2O1 | 15.7 µM | 1.05 µM | 18.6 µM | 2.03 µM | 10.4 µM | 15.6 µM | 1.2 µM | > 100 µM | 5.36 µM | – | – | – | – | – | – | 2.5 | –
O=C1C[C@H]2O[C@H](CI)[C@H](O)[C@H]2O1 | – | – | – | – | – | – | – | – | – | > 100 µg/mL | > 1000 µg/mL | inactive | > 100 µg/mL | > 100 µg/mL | > 1000 µg/mL | – | –
O=C1C[C@@H]2O[C@@H](CO)[C@@H](O)[C@@H]2O1 | 10.2 µM | 4.02 µM | 15.9 µM | 5.56 µM | 7.38 µM | 11.2 µM | 7.26 µM | > 100 µM | 30 µM | – | – | – | – | – | – | – | 2.1
C=C[C@@H](OCc1ccccc1)[C@@H]1OC(=O)C[C@@H]1OC | 12.9 µM | 16.9 µM | 18.7 µM | 4.42 µM | 9.85 µM | 12.1 µM | 26.4 µM | > 100 µM | 42.3 µM | – | – | – | – | – | – | – | –
C=C[C@H](OCc1ccccc1)[C@H]1OC(=O)C[C@H]1OC | 34.4 µM | 5.67 µM | 27.9 µM | 7.59 µM | 11.6 µM | 12.7 µM | 11.5 µM | > 100 µM | 12.6 µM | – | – | – | – | – | – | – | –
O=C1C[C@@H]2O[C@@H](CI)[C@@H](O)[C@@H]2O1 | 26.2 µM | 19.4 µM | 24.6 µM | 15.1 µM | 22.8 µM | 16.7 µM | 20.1 µM | > 100 µM | 17.7 µM | > 100 µg/mL | > 1000 µg/mL | inactive | > 100 µg/mL | > 100 µg/mL | > 1000 µg/mL | – | –
C=C[C@@H](O)[C@@H]1OC(=O)C[C@@H]1OC | 18.6 µM | 9.2 µM | 19.6 µM | 2.74 µM | 5.36 µM | 7.17 µM | 4.52 µM | > 100 µM | 11.9 µM | – | – | – | – | – | – | – | –
C=C[C@H](O)[C@H]1OC(=O)C[C@H]1OC | 32.9 µM | 4.23 µM | 28.3 µM | 8.05 µM | 12.8 µM | 11.7 µM | 10.9 µM | > 100 µM | 11.8 µM | > 100 µg/mL | > 1000 µg/mL | inactive | > 100 µg/mL | > 100 µg/mL | > 1000 µg/mL | – | –
